In the assay the test system is CEM cells HIV-1 protection, formazan growth assay. Description: NCI AIDS Antiviral Assay. To be noted: for IC50: measured here: growth of uninfected CEM cells. In a few lines:
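Screen of anti-HIV-1 activity in human CEM cells using a formazan-based growth measurement at five drug concentrations. Hits with 50% or greater protection were repeated, and confirmation required reproducible complete protection.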

The structures appear in SMILES notation. Where “and” joins values, the source holds several entries; their conditions need not be identical. Equal entries are not always repeated. Calls of active or inactive are those of the source.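 The calls were made as follows: active = compounds giving half or more protection of infected cells from virus-caused growth loss, again on retest; inactive = the rest.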 Where only a bound is given, the exact number is not on record here.

For `Cc1ccc(NC(=S)/C(=C(\[O-])c2ccc([N+](=O)[O-])cc2)[n+]2ccc(C(C)C)cc2)c(C)c1`, the EC50 was more than 200 µM and the IC50 is 158 µM.
For `COc1ccc(C2CC(=O)Oc3ccccc3O2)cc1` (stereo not drawn), the EC50 is 102 µM and the IC50 is 151 µM.
For `O=C(Nc1nccs1)c1c(O)nc2sccn2c1=O`, the EC50 was more than 200 µM and the IC50 is more than 200 µM.
With `CCC[CH2][Sn]([CH2]CCC)([O]C(=O)Cc1ccc(F)cc1)[O]C(=O)Cc1ccc(F)cc1`, the EC50 was more than 25.1 µM and the IC50 was 4.79 µM.
In the case of `Cc1cc(C)nc(NS(=O)(=O)c2ccc(NC(=O)c3ccc4nc5ccccc5c(Nc5ccc(S(=O)(=O)N=C(N)N)cc5)c4c3)cc2)n1`, the EC50 was 72.4 µM and the concentration for half-maximal inhibition (IC50) worked out at 141 µM.
On to `COc1ccc(/C=C/C(=O)c2nc3ccccc3[nH]2)cc1`, for which the EC50 is more than 200 µM and the IC50 stood at 3.98 µM.
Regarding `COc1cc2c(=O)c3ccccc3oc2c(O)c1OC`, the EC50 is more than 200 µM and the IC50 is more than 200 µM.
Regarding `CC1CCC(NC(=O)N(CCCl)N=O)CC1` (stereo not drawn), the EC50 is more than 145 µM and the IC50 was more than 145 µM.
Turning to `CNP(=O)(Oc1cc(Cl)c(Cl)cc1Cl)N1CCN(c2ccccc2)CC1` (stereo not drawn), the EC50 is more than 58.9 µM and the IC50 was 30.9 µM.
Consider `CCOC(=O)C(C)(C(=O)OCC)C1(c2ccccc2)OC(=O)c2ccccc21` (stereo not drawn), for which the result was inactive.
In turn, `CCOc1ccccc1/C=C(/C#N)C(N)=O` yielded an EC50 of more than 200 µM and an IC50 of 117 µM.
Regarding `COC(=O)[C@@H]1CCCCC[C@H]2C(CO)=C(C)C(=O)C12` (stereo partly drawn), the EC50 was more than 200 µM and the IC50 was more than 200 µM.
In the case of `O=C(Nc1nccs1)c1ccc(C(=O)Nc2nccs2)cc1`, the EC50 was more than 200 µM and the IC50 is more than 200 µM.
Regarding `COC(=O)C1CC(C(=O)OC)c2nc3cc([N+](=O)[O-])ccc3nc21` (stereo not drawn), the EC50 is more than 151 µM and the IC50 is 61.7 µM.
On to `C=C1C(=O)[C@@]23C(O)C[C@@H]4C(C)(C)CCCC4(COC(C)=O)[C@@H]2[C@@H](O)C[C@@H]1[C@H]3O` (stereo partly drawn), for which the EC50 is more than 631 µM; the IC50 was 1.95 µM and 1.02 µM.
`S=c1sc2nc(Cl)nc(Cl)c2s1`: the EC50 was more than 200 µM and the IC50 was found to be 13.2 µM.
Taken in the same sequence, the figures for `COc1cccc2c1CCc1c(-c3ccc(F)cc3)cc(-c3ccc4ccccc4n3)nc1-2` were more than 200 µM and more than 200 µM.
Taken in the same sequence, the figures for `CC(=O)OCc1cc(=O)n(C)c2c3c4c(cc12)c(C)cc(=O)n4CO3` were more than 7.94 µM and 1.26 µM.
Consider `O=C1OC(=O)c2cc3c(cc21)C(=O)O/C3=C\c1ccccc1`, for which the result was inactive.
Take `O=c1c2ccc(Cl)cc2oc2c(CSc3ccccc3)cccc12`: the EC50 was more than 200 µM and the IC50 was found to be 9.77 µM.
With `COC(=O)Nc1nc2ccc(C(=O)c3ccc(F)cc3)cc2[nH]1`, the EC50 is more than 2 µM and the IC50 came out at 0.0871 µM.
The corresponding values for `CC1(C)CSC(=S)N1` are more than 200 µM and more than 200 µM.
Consider `Nc1ccc2nc3n(c2c1)C(c1c(F)cccc1F)SC3` (stereo not drawn), for which the EC50 is more than 200 µM and the IC50 was determined as 126 µM.
On to `O=C(Nn1c(-c2ccccc2)nc2ccccc2c1=O)c1ccc(CS)cc1`, for which the outcome was inactive.
For `N=C(N)SCCNC[C@@H](O)[C@@H](O)CNCCSC(=N)N`, the EC50 is more than 537 µM and the IC50 was found to be 437 µM.
Consider `O=C(Nc1ccccc1)c1c(O)[nH]c(=O)[nH]c1=O`, for which the EC50 is more than 75.9 µM and the IC50 amounted to 38.9 µM.
The corresponding values for `O=C(O)c1ccccc1C(=O)NC(Cc1ccccc1)(C(=O)O)C(=O)O` are more than 200 µM and more than 200 µM.
As to `NC1=NCCC1(c1ccccc1)c1ccccn1` (stereo not drawn), the EC50 was more than 550 µM and the IC50 came to 490 µM.
For the molecule `S=C(Nc1ccccn1)Nc1ccccc1Cl`, the EC50 was more than 200 µM and the half-maximal inhibitory concentration (IC50) turned out to be 123 µM.
Taken in the same sequence, the figures for `c1ccc2c(N3CC3)nncc2c1` were more than 200 µM and more than 200 µM.
As to `CCCCOC(=O)NC(Nc1cccc(C(F)(F)F)c1)(C(F)(F)F)C(F)(F)F`, the EC50 was more than 200 µM and the half-maximal inhibitory concentration (IC50) came out at 50.1 µM.
For `O=C(O)c1ccc(N=Nc2ccc(/C=C/c3ccc(N=Nc4ccc(C(=O)O)cc4O)cc3S(=O)(=O)O)c(S(=O)(=O)O)c2)c(O)c1`, the EC50 was more than 513 µM and the IC50 is 4.27 µM.
`CCC1OC2C(CC=C(C)C)=C3OC(C)(O)C(C)(CC)C(=O)C3=C3OC(=O)C=C1C32` (stereo not drawn): the EC50 is more than 200 µM and the IC50 came out at 33.1 µM.
Take `CC1=CC(/C=C(\C)CCCc2ccoc2)C2(OC(=O)C(C)=C2O)[C@H]2C1CC[C@@H]2C` (stereo partly drawn): the result was inactive.
On to `CC12CC(c3ccccc3N1)C1CC2(C)Nc2ccccc21`, for which the EC50 is more than 64.6 µM and the IC50 is more than 64.6 µM.
Consider `CC(C)(C[NH-])C[NH-].[Cl][Pt+2][Cl]`, for which the EC50 was more than 676 µM and the IC50 was 2.04 µM.
The corresponding values for `COc1cccc2cc(C(=O)Nc3ccccc3)c(=N)oc12` are more than 200 µM and more than 200 µM.
With `O=C1C=C(Nc2cccnc2)c2ccccc2C1=O`, the EC50 was more than 20.9 µM and the IC50 amounted to 18.2 µM.
Regarding `COc1ccc(-c2c3nc(c(-c4ccc(OC)cc4)c4[n-]c(c(-c5ccc(OC)cc5)c5nc(c(-c6ccc(OC)cc6)c6[n-]c2c2ccccc62)-c2ccccc2-5)c2ccccc42)-c2ccccc2-3)cc1.[Zn+2]`, the EC50 is more than 50.1 µM and the concentration for half-maximal inhibition (IC50) is more than 50.1 µM.
Consider `O=C(O)CCS(=O)(=O)O`, for which the EC50 is more than 200 µM and the IC50 is more than 200 µM.
For the molecule `N#C/C(=C\c1ccccc1)c1nc(-c2cc3ccccc3oc2=O)cs1`, the EC50 is more than 151 µM and the IC50 was more than 151 µM.
With `O=C1C(=O)N(c2cc(Cl)ccc2Cl)C(=O)C(=O)C1c1nc2ccccc2s1`, the result was inactive.
As for `COc1cc(COC(=O)N2CCC2C(=O)O)c([N+](=O)[O-])cc1OC` (stereo not drawn), the EC50 is more than 741 µM and the half-maximal inhibitory concentration (IC50) was more than 741 µM.
In the case of `c1ccc2c(c1)C1CCCCCC21N1CCOCC1` (stereo not drawn), the EC50 was more than 200 µM and the IC50 turned out to be 170 µM.
Consider `CCN(CC)c1ccc(N=Cc2cc(=O)n(C)c3ccccc23)cc1`, for which the EC50 is more than 200 µM and the IC50 was 3.72 µM.
As to `Cc1cn2c(C)csc2c1P(=O)(OC(C)C)OC(C)C`, the EC50 was more than 200 µM and the IC50 worked out at 158 µM.
Taken in the same sequence, the figures for `NC(=O)C(=CNc1nc(-c2cccc([N+](=O)[O-])c2)cs1)C(N)=O` were more than 200 µM and more than 100 µM.
For `Cn1c(=O)n2c(=O)n(C)c(=O)n2c1=O`, the EC50 is more than 200 µM and the IC50 was more than 200 µM.
With `O=[N+]([O-])c1ccc(-c2ccc(-c3csc(Nc4ccccc4)n3)o2)cc1`, the EC50 was more than 37.2 µM and the IC50 is 6.76 µM.
`COC(=O)[C@]1(C)CC[C@]2(C)CC[C@]3(C)C4CC[C@@]56CO[C@@](O)(CCC5[C@]4(C)CCC3(C)[C@@H]2C1)[C@@H]6C` (stereo partly drawn): the EC50 was more than 28.2 µM and the IC50 came to 26.9 µM.
Consider `Cc1cc(C)c(NS(=O)c2cccc(C(F)(F)F)c2)c(C)c1` (stereo not drawn), for which the EC50 was more than 110 µM and the IC50 is more than 110 µM.
Take `CCOC(=O)c1cc2c(ccc3cc(C(=O)OCC)[nH]c32)[nH]1`: the EC50 is more than 200 µM and the 50% inhibitory concentration (IC50) was more than 200 µM.
On to `O=c1ccn2n1CCCCC2`, for which the EC50 is more than 200 µM and the concentration for half-maximal inhibition (IC50) is more than 200 µM.
`CCC/C(Cl)=N/OC(=O)Nc1cccc(F)c1`: the EC50 was more than 20 µM and the IC50 was 3.16 µM.
`NC(=O)NC1C(C(N)=O)N(Cc2ccccc2)C(=O)N1Cc1ccccc1` (stereo not drawn): the EC50 is more than 97.7 µM and the IC50 is more than 97.7 µM.
Turning to `O=C(CC(C(=O)c1ccc(F)cc1)c1ccsc1)c1cccs1` (stereo not drawn), the EC50 is more than 200 µM and the IC50 is more than 200 µM.
Take `Cc1cccc(C2SCc3nc4ccccc4n32)c1` (stereo not drawn): the outcome was inactive.
As for `O=C(Nc1ccccc1)N1CCN(C(=O)Nc2ccccc2)C1=S`, the EC50 is 195 µM and the IC50 was more than 200 µM.
For the molecule `CC(C)=CCCC(C)CCN(O)CC(CO)OC(CO)n1cc(C)c(=O)[nH]c1=O` (stereo not drawn), the EC50 was more than 200 µM and the IC50 was determined as 135 µM.
Turning to `C=C1CC(C)(Cn2c(N)nc3nc[nH]c3c2=O)OC1=O` (stereo not drawn), the EC50 is more than 200 µM and the IC50 was 117 µM.
On to `COc1ccc(C2OC2C(=O)C23CC4CC(CC(C4)C2)C3)cc1` (stereo not drawn), for which the EC50 is more than 200 µM and the IC50 amounted to 52.5 µM.
With `c1ccc(N2CCN(c3ccccn3)CC2)nc1`, the EC50 is more than 100 µM and the 50% inhibitory concentration (IC50) is more than 100 µM.
With `O=c1[nH]c(=O)n(CCOc2ccc(Cl)cc2)cc1Nc1ccccc1`, the EC50 was more than 200 µM and the IC50 was 135 µM.
Turning to `NS(=O)(=O)OCCCCCCCOS(N)(=O)=O`, the EC50 is more than 871 µM and the half-inhibitory concentration (IC50) came out at 13.5 µM.
Taken in the same sequence, the figures for `O=C(c1ccco1)N(C(=S)OCc1ccccn1)c1ccccc1` were more than 200 µM and 105 µM.
Consider `O=C(c1ccccc1)N1CN(C(=O)c2ccccc2)CN(C(=O)c2ccccc2)C1`, for which the EC50 was more than 200 µM and the IC50 turned out to be 30.2 µM.
For `O=S(=O)(O)c1ccc(-c2nnc(-c3ccccn3)nc2-c2ccc(S(=O)(=O)O)o2)o1`, the EC50 was more than 200 µM and the IC50 is more than 200 µM.
As to `O=c1nc2occc2cn1C1CC(O)C(CO)O1` (stereo not drawn), the EC50 is more than 513 µM and the IC50 was more than 513 µM.
On to `NNC(=O)c1ccc(-n2nnc(C(=O)NN)c2C(=O)NN)cc1`, for which the EC50 is more than 501 µM and the IC50 is more than 501 µM.
Take `O=[N+]([O-])C(Cl)C(Cl)c1ccc(Cl)cc1` (stereo not drawn): the EC50 was more than 200 µM and the IC50 is 7.41 µM.
For the molecule `COc1cc(/C=C2\CN(C)CC3=C2NC(=S)NC3c2cc(OC)c(OC)c(OC)c2)cc(OC)c1OC` (stereo not drawn), the EC50 is more than 200 µM and the 50% inhibitory concentration (IC50) was 38.9 µM.
Turning to `CCOC(=O)C(=[N+]=[N-])C(=O)Nc1nn2nnnc2c2ccccc12`, the EC50 was more than 200 µM and the IC50 is more than 200 µM.

As a reminder, the EC50 is the concentration at which the effect is half-maximal. As a reminder, the IC50 is the point on the concentration scale where inhibition reaches its midpoint. Read a high IC50 as weaker potency.
